What follows are compounds tested against PI3Kδ (p110δ/p85α) (Homo sapiens (Human), UniProt O00329) (assay: PI3Kδ scintillation proximity assay (Example A3)). Conditions: 20 μM ATP, 20 μM PIP2, 4 nM PI3Kδ; read-out: PI3Kδ SPA IC50.
Assay type: biochemical
How it was run: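 IC50 derived by fitting percent control activity against log inhibitor concentration. Radiolabelled product was measured by scintillation counting on WGA SPA beads after overnight shaking. The kinase reaction used 4 nM p110δ/p85α, 20 μM ATP (with [γ-33P]ATP) and 20 μM PIP2 at pH 6.7 and room temperature, with 0.5% DMSO final.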

Sequence of PI3Kδ (p110δ/p85α) (O00329 whole entry): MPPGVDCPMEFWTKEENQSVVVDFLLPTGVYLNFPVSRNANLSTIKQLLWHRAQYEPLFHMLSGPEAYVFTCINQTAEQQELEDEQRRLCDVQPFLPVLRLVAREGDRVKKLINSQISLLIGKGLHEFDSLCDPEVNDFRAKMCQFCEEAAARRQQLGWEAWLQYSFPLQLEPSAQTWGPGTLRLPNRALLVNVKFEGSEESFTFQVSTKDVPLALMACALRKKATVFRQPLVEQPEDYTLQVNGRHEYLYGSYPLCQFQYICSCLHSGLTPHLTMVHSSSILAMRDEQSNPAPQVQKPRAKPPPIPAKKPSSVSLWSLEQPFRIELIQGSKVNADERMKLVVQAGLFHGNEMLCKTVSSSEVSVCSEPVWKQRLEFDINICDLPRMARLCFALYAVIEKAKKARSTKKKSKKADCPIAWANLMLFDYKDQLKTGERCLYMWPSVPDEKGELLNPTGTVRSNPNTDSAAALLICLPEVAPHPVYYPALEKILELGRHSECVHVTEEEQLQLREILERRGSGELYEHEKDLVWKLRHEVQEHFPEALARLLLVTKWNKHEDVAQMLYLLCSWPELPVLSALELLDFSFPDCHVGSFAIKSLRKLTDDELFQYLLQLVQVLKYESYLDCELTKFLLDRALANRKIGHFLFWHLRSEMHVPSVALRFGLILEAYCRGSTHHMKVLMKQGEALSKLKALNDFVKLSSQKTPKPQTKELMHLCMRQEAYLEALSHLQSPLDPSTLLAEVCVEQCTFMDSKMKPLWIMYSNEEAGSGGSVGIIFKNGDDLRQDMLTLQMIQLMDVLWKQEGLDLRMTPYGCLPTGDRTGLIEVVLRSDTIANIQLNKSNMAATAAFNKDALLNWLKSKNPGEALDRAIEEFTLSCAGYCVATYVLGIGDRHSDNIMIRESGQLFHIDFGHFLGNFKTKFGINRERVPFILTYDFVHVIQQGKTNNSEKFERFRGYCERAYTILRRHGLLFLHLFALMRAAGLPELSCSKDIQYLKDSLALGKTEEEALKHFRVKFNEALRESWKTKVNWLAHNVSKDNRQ
Sequence of PI3Kδ (p110δ/p85α) (P27986 whole entry partner): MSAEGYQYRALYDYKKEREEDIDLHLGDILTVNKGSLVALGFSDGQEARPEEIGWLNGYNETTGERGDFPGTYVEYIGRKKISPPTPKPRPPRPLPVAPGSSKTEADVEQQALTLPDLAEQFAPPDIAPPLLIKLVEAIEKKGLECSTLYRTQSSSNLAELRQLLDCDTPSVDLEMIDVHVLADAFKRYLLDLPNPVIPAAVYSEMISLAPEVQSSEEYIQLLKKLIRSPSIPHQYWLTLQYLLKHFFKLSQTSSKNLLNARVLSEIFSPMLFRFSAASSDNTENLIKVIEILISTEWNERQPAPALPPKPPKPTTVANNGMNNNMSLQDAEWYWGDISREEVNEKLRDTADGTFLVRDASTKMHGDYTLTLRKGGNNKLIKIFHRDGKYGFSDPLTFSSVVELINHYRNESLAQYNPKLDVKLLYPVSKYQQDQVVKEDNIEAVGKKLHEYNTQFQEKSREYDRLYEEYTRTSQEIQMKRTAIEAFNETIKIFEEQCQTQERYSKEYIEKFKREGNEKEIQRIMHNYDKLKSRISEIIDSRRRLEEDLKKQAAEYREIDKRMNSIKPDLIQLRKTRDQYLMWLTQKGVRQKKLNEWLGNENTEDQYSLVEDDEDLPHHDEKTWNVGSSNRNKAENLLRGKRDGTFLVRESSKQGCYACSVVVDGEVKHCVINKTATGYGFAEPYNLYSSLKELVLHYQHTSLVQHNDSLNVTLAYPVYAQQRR

| SMILES | IC50 |
| --- | --- |
| CCOc1c(C(C)n2nc(CO)c3c(N)ncnc32)cc(Cl)c(C)c1-c1ccc(C(=O)N(C)C)nc1 (racemic) [Example 83, 5-(3-{1-[4-Amino-3-(hydroxymethyl)-1H-pyrazolo[3,4-d]pyrimidin-1-yl]ethyl}-5-chloro-2-ethoxy-6-methylphenyl)-N,N-dimethylpyridine-2-carboxamide bis(trifluoroacetate)] | ≤ 10 nM |
| COc1c(C(C)n2ccc(=O)c3c(N)ncnc32)cc(Cl)c(C)c1-c1cncc(S(C)(=O)=O)c1 (racemic) [Example 26, 4-Amino-8-(1-{5-chloro-2-methoxy-4-methyl-3-[5-(methylsulfonyl)pyridin-3-yl]phenyl}ethyl)pyrido[2,3-d]pyrimidin-5(8H)-one bis(trifluoroacetate)] | ≤ 10 nM |
| CCOc1c(C(C)n2nc(C)c3c(N)ncnc32)cc(Cl)c(F)c1C1CNC(=O)C1 (single isomer, unassigned) [Example 347, 4-{3-[1-(4-amino-3-methyl-1H-pyrazolo[3,4-d]pyrimidin-1-yl)ethyl]-5-chloro-2-ethoxy-6-fluorophenyl}pyrrolidin-2-one] | ≤ 10 nM |
| CCOc1c(C(C)n2nc(C)c3c(N)ncnc32)cc(Cl)c(C#N)c1-c1cncc(C(=O)N(C)C)c1 (single isomer, unassigned) [Example 331, 5-{3-[1-(4-amino-3-methyl-1H-pyrazolo[3,4-d]pyrimidin-1-yl)ethyl]-5-chloro-6-cyano-2-ethoxyphenyl}-N,N-dimethylnicotinamide] | ≤ 10 nM |
| CCOc1c(C(C)n2nc(C)c3c(N)ncnc32)cc(Cl)c(F)c1C1CNC(=O)C1 (single isomer, unassigned) [Example 345, 4-{3-[1-(4-amino-3-methyl-1H-pyrazolo[3,4-d]pyrimidin-1-yl)ethyl]-5-chloro-2-ethoxy-6-fluorophenyl}pyrrolidin-2-one] | 50 to 200 nM |
| CCOc1c(C(C)n2nc(C)c3c(N)ncnc32)cc(Cl)c(C#N)c1C1CN(C(C)(C)C(=O)NC)C1 (single isomer, unassigned) [Example 240, 2-(3-{3-[1-(4-Amino-3-methyl-1H-pyrazolo[3,4-d]pyrimidin-1-yl)ethyl]-5-chloro-6-cyano-2-ethoxyphenyl}azetidin-1-yl)-N,2-dimethylpropanamide] | ≤ 10 nM |
| CCOc1c(C(C)n2nc(C)c3c(N)ncnc32)cc(Cl)c(C)c1-c1cncc(C(=O)N(C)C)c1 (centres unmarked) [Example 196, 5-(3-(1-(4-amino-3-methyl-1H-pyrazolo[3,4-d]pyrimidin-1-yl)ethyl)-5-chloro-2-ethoxy-6-methylphenyl)-N,N-dimethylnicotinamide] | ≤ 10 nM |
| CCOc1c(C(C)n2nc(C)c3c(N)ncnc32)cc(Cl)c(C#N)c1C1CN(C2CCC2)C1 (single isomer, unassigned) [Example 218, 4-[1-(4-Amino-3-methyl-1H-pyrazolo[3,4-d]pyrimidin-1-yl)ethyl]-6-chloro-2-(1-cyclobutylazetidin-3-yl)-3-ethoxybenzonitrile] | ≤ 10 nM |
| COc1c(C(C)n2nc(C)c3c(N)ncnc32)cc(Cl)c(C)c1-c1cncc(C(=O)N(C)CCN)c1 (single isomer, unassigned) [Example 178, 5-(3-(1-(4-amino-3-methyl-1H-pyrazolo[3,4-d]pyrimidin-1-yl)ethyl)-5-chloro-2-methoxy-6-methylphenyl)-N-(2-aminoethyl)-N-methylnicotinamide] | ≤ 10 nM |
| COc1c(C(C)n2nc(C)c3c(N)ncnc32)cc(Cl)c(C#N)c1C1CN(CC2CCOCC2)C1 (single isomer, unassigned) [Example 280, 4-[1-(4-Amino-3-methyl-1H-pyrazolo[3,4-d]pyrimidin-1-yl)ethyl]-6-chloro-3-methoxy-2-[1-(tetrahydro-2H-pyran-4-ylmethyl)azetidin-3-yl]benzonitrile] | ≤ 10 nM |
| COc1c(C(C)n2ccc(=O)c3c(N)ncnc32)cc(Cl)c(C)c1-c1ccc(C(=O)N(C)C)nc1 (single isomer, unassigned) [25 (1st peak), 5-{3-[1-(4-Amino-5-oxopyrido[2,3-d]pyrimidin-8(5H)-yl)ethyl]-5-chloro-2-methoxy-6-methylphenyl}-N,N-dimethylpyridine-2-carboxamide] | 200 to 500 nM |
| CCOc1c(C(C)n2nc(C)c3c(N)ncnc32)cc(Cl)c(C#N)c1-c1cncc(C#N)c1 (single isomer, unassigned) [Example 330, 5-{3-[1-(4-amino-3-methyl-1H-pyrazolo[3,4-d]pyrimidin-1-yl)ethyl]-5-chloro-6-cyano-2-ethoxyphenyl}nicotinonitrile] | ≤ 10 nM |
| COc1c(C(C)n2nc(C)c3c(N)ncnc32)cc(Cl)c(C)c1C1CN(C(=O)C2(O)CC2)C1 (single isomer, unassigned) [Example 122, 1-[(3-{3-[1-(4-Amino-3-methyl-1H-pyrazolo[3,4-d]pyrimidin-1-yl)ethyl]-5-chloro-2-methoxy-6-methylphenyl}azetidin-1-yl)carbonyl]cyclopropanol] | ≤ 10 nM |
| CCOc1c(C(C)n2nc(C)c3c(N)ncnc32)cc(Cl)c(C#N)c1C1CNC(=O)O1 (single isomer, unassigned) [323 (3rd peak), 4-[1-(4-amino-3-methyl-1H-pyrazolo[3,4-d]pyrimidin-1-yl)ethyl]-6-chloro-3-ethoxy-2-(2-oxo-1,3-oxazolidin-5-yl)benzonitrile] | 50 to 200 nM |
| CCOc1c(C(C)n2nc(C)c3c(N)ncnc32)cc(Cl)c(F)c1C1CN(CCO)C1 (centres unmarked) [Example 144, 2-(3-{3-[1-(4-Amino-3-methyl-1H-pyrazolo[3,4-d]pyrimidin-1-yl)ethyl]-5-chloro-2-ethoxy-6-fluorophenyl}azetidin-1-yl)ethanol] | ≤ 10 nM |
| COc1c(C(C)n2ncc3c(N)ncnc32)cc(Cl)c(C)c1-c1ccnc(C(=O)NCCO)c1 (racemic) [Example 39, 4-{3-[1-(4-amino-1H-pyrazolo[3,4-d]pyrimidin-1-yl)ethyl]-5-chloro-2-methoxy-6-methylphenyl}-N-(2-hydroxyethyl)pyridine-2-carboxamide] | 50 to 200 nM |
| CCOc1c(C(C)n2nc(C)c3c(N)ncnc32)cc(Cl)c(F)c1C1CNC(=O)C1 (single isomer, unassigned) [Example 348, 4-{3-[1-(4-amino-3-methyl-1H-pyrazolo[3,4-d]pyrimidin-1-yl)ethyl]-5-chloro-2-ethoxy-6-fluorophenyl}pyrrolidin-2-one] | 50 to 200 nM |
| CCOc1c(C(C)n2nc(C)c3c(N)ncnc32)cc(Cl)c(C)c1-c1cncc(S(C)(=O)=O)c1 (centres unmarked) [Example 198, 1-(1-(5-chloro-2-ethoxy-4-methyl-3-(5-(methylsulfonyl)pyridin-3-yl)phenyl)ethyl)-3-methyl-1H-pyrazolo[3,4-d]pyrimidin-4-amine] | ≤ 10 nM |
| CNC(=O)c1ccc(-c2c(C)c(Cl)cc(C(C)n3nc(C)c4c(N)ncnc43)c2OC)cn1 (single isomer, unassigned) [Example 173, 5-(3-(1-(4-amino-3-methyl-1H-pyrazolo[3,4-d]pyrimidin-1-yl)ethyl)-5-chloro-2-methoxy-6-methylphenyl)-N-methylpicolinamide] | ≤ 10 nM |
| CCOc1c(C(C)n2nc(-c3ccc(F)cc3)c3c(N)ncnc32)cc(Cl)c(C)c1-c1ccc(C(=O)N(C)C)nc1 (racemic) [Example 55, 5-(3-{1-[4-amino-3-(4-fluorophenyl)-1H-pyrazolo[3,4-d]pyrimidin-1-yl]ethyl}-5-chloro-2-ethoxy-6-methylphenyl)-N,N-dimethylpyridine-2-carboxamide bis(trifluoroacetate)] | 10 to 50 nM |
| CCOc1c(C(C)n2nc(C)c3c(N)ncnc32)cc(Cl)c(C#N)c1C1CNC(=O)C1 (single isomer, unassigned) [Example 352, 4-[1-(4-amino-3-methyl-1H-pyrazolo[3,4-d]pyrimidin-1-yl)ethyl]-6-chloro-3-ethoxy-2-(5-oxopyrrolidin-3-yl)benzonitrile] | ≤ 10 nM |
| COc1c(C(C)n2ccc(=O)c3c(N)ncnc32)cc(Cl)c(C)c1-c1cccc(C(=O)N(C)C)c1 (racemic) [Example 30, 3′-[1-(4-Amino-5-oxopyrido[2,3-d]pyrimidin-8(5H)-yl)ethyl]-5′-chloro-2′-methoxy-N,N,6′-trimethylbiphenyl-3-carboxamide bis(trifluoroacetate)] | ≤ 10 nM |
| CCOc1c(C(C)n2nc(C)c3c(N)ncnc32)cc(Cl)c(C#N)c1C1CN(S(=O)(=O)C2CC2)C1 (single isomer, unassigned) [Example 251, 4-[1-(4-Amino-3-methyl-1H-pyrazolo[3,4-d]pyrimidin-1-yl)ethyl]-6-chloro-2-[1-(cyclopropylsulfonyl)azetidin-3-yl]-3-ethoxybenzonitrile] | ≤ 10 nM |
| COc1c(C(C)n2nc(C)c3c(N)ncnc32)cc(Cl)c(C)c1-c1ccnc(C(=O)N(C)CCO)c1 (racemic) [Example 19, 4-{3-[1-(4-amino-3-methyl-1H-pyrazolo[3,4-d]pyrimidin-1-yl)ethyl]-5-chloro-2-methoxy-6-methylphenyl}-N-(2-hydroxyethyl)-N-methylpyridine-2-carboxamide] | ≤ 10 nM |
| CCOc1c(C(C)n2nc(C)c3c(N)ncnc32)cc(Cl)c(C#N)c1C1CN(C(=O)OC)C1 (single isomer, unassigned) [Example 252, Methyl 3-{3-[1-(4-amino-3-methyl-1H-pyrazolo[3,4-d]pyrimidin-1-yl)ethyl]-5-chloro-6-cyano-2-ethoxyphenyl}azetidine-1-carboxylate] | ≤ 10 nM |
| CCOc1c(C(C)n2nc(C)c3c(N)ncnc32)cc(Cl)c(C#N)c1C1CNC(=O)C1 (single isomer, unassigned) [Example 349, 4-[1-(4-amino-3-methyl-1H-pyrazolo[3,4-d]pyrimidin-1-yl)ethyl]-6-chloro-3-ethoxy-2-(5-oxopyrrolidin-3-yl)benzonitrile] | ≤ 10 nM |
